This is an account of results in paper PMC12584665, “In vitro and in vivo efficacy of vancomycin against Elizabethkingia species and the impact of increased vancomycin MICs” (Microbiology Spectrum, 2025).

In brackets after ≈: the same amount, converted by molar mass. Where two headings read alike, the source gives them in different places.

Data set [1] relates to Elizabethkingia anophelis. In words: Broth microdilution (BMD) MIC. In kind it is cell-based. The text has this:
Eighteen E. anophelis clinical isolates from the nationwide surveillance program (Taiwan Surveillance of Antimicrobial Resistance) were well characterized in our previous study ([7]) and were selected for susceptibility testing and minimum bactericidal concentration (MBC) assays. Among them, five isolates with different clonality (underlined strains in Fig. S1) were selected for the time-kill assays and in vivo experiments.
Broth microdilution, disc diffusion, Etest, and agar dilution assays were conducted following CLSI guidelines to determine vancomycin MICs ([8]). […] Criteria for Staphylococcus spp. were not adopted due to the lack of a zone diameter breakpoint. MBCs were determined following CLSI guidelines ([8]).

The subject of data set [2] is Elizabethkingia anophelis. In words: Galleria mellonella (wax moth) infection survival model. In kind it is in vivo. The note with it: 72 h. As to the method:
(§1) In vivo efficacy was assessed by wax moth (Galleria mellonella), murine pneumonia, and murine thigh infection models following the protocols of our previous study ([2]). The Animal Ethics Committee of Taiwan’s National Health Research Institutes approved the murine pneumonia and thigh infection models.
G. mellonella was reared at the National Health Research Institutes of Taiwan. Caterpillars in the final instar larval stage (weight ca. 250 mg) were used. […] A 10 µL aliquot of E. anophelis at the predetermined lethal dose was injected into the hemocoel of each caterpillar via the last left proleg. Antibiotics were administered once into another proleg at the indicated time points; vancomycin (5, 10, or 20 mg/kg, 2 h post-inoculation); other glycopeptides (teicoplanin, 10 mg/kg, 30 min post-inoculation; dalbavancin, 8.75 mg/kg, 2 h post-inoculation; oritavancin, 15 mg/kg, 1 h post-inoculation) ([11][–][13]); or daptomycin (10 mg/kg, 2 h post-inoculation) ([13]). Each treatment group contained 6–8 caterpillars. A control group injected with sterile PBS was included to monitor for trauma-related mortality. Caterpillars were incubated at 37°C, and survival was recorded twice daily for 72 h.

For data set [3], the system named is Elizabethkingia anophelis. Description: Murine pneumonia model. In kind it is in vivo, C57BL/6J mice. Conditions: 50 mg/kg intraperitoneal twice daily. As to the method: as §1
For the pneumonia model, a bacterial suspension was mixed with 5% mucin from porcine stomach (type 3; Sigma-Aldrich, Saint Louis, USA). Seven-week-old C57BL/6J mice were anesthetized with isoflurane for 10 min. For each strain, the inoculum corresponded to the lowest dose that caused >80% mortality in preliminary testing. This inoculum (10⁶–10⁸ cfu, depending on strain) was delivered intratracheally to induce pneumonia. Two hours thereafter, mice received either high or human-equivalent doses of subcutaneous vancomycin (100 mg/kg or 25 mg/kg, respectively) or intraperitoneal teicoplanin (50 mg/kg) ([17]) twice daily for 3 days. Each group contained eight mice, and survival was monitored for 3 days.

Data set [4] relates to Elizabethkingia anophelis. Description: Murine neutropenic thigh infection model. In kind it is in vivo, C57BL/6J mice. Conditions: 50 mg/kg intraperitoneal, 2 h and 14 h after inoculation. As to the method:
as §1
For the thigh infection model, seven-week-old C57BL/6J mice were rendered neutropenic by intraperitoneal injections of cyclophosphamide (Cytoxan; Bristol-Myers Squibb, Princeton, NJ, USA) 4 days (150 mg/kg) and 1 day (100 mg/kg) before bacterial inoculation. A 30 µL aliquot containing the E. anophelis (10^7 cfu) was injected into each of the two rear thighs. Vancomycin (25 mg/kg or 100 mg/kg, subcutaneous) or teicoplanin (50 mg/kg, intraperitoneal) was administered 2 h and 14 h after inoculation. Mice were sacrificed 24 h post-inoculation, and homogenized thigh tissue was plated in serial 10-fold dilutions on brain-heart infusion agar to determine bacterial counts. Each mouse, not each thigh, was considered an individual data point.

The nature of data set [5]: Serum drug levels in mice (LC-MS/MS). It is filed as in vivo. The note with it: single dose 50 mg/kg intraperitoneal teicoplanin vs 25 or 100 mg/kg subcutaneous vancomycin. The protocol: Fifty microliters of aliquots of murine serum was mixed with 100 µL acetonitrile. The mixture was vortexed and then centrifuged at 15,000 × g for 20 min in a Beckman Coulter Microfuge 22R Centrifuge at room temperature. The supernatant was transferred to a clean tube, and then 15 µL of the supernatant was injected onto LC-MS/MS. The chromatographic system consisted of an Agilent 1200 series LC system and an Agilent ZORBAX Eclipse XDB-C8 column (5 µm, 3.0 × 150 mm) interfaced to an MDS Sciex API3000 tandem mass spectrometer. The MS/MS ion transitions monitored were m/z 725/144 for vancomycin. A gradient HPLC method was employed for separation. Mobile phase A consisted of 10 mM ammonium acetate aqueous solution containing 0.1% formic acid and mobile phase B consisted of acetonitrile. The gradient profile was as follows (min/%B): 0.0–0.9/5, 1.0–2.0/50, 2.1–3.7/95, 3.8–5.0/5. The flow rate was set at 1.5 mL/min.

[6] abbreviates: E. anophelis used in the G. mellonella assays of Fig. S4, isolate and method not given.
Where [7] appears, read: Elizabethkingia anophelis, E. anophelis clinical isolate 2008N05-106, read-out: MIC, BMD.
Where [8] appears, read: Elizabethkingia anophelis, E. anophelis clinical isolate 2008S01-229, read-out: MIC, BMD.
Setting [9] is: Elizabethkingia anophelis, E. anophelis clinical isolate 2014C06-157, read-out: MIC, BMD.
[10] abbreviates: Elizabethkingia anophelis, E. anophelis clinical isolate 2016N17-576, read-out: MIC, BMD.
Where [11] appears, read: Elizabethkingia anophelis, E. anophelis clinical isolate 2018C04-213, read-out: MIC, BMD.
Where [12] appears, read: Elizabethkingia anophelis, E. anophelis clinical isolate 2018C04-224, read-out: MIC, BMD.
[13] abbreviates: Elizabethkingia anophelis, E. anophelis clinical isolate 2018C07-210, read-out: MIC, BMD.
[14] abbreviates: Elizabethkingia anophelis, E. anophelis clinical isolate 2018C07-234, read-out: MIC, BMD.
[15] abbreviates: Elizabethkingia anophelis, E. anophelis clinical isolate 2018C08-127, read-out: MIC, BMD.
Where [16] appears, read: Elizabethkingia anophelis, E. anophelis clinical isolate 2018E03-151, read-out: MIC, BMD.
[17] abbreviates: Elizabethkingia anophelis, E. anophelis clinical isolate 2018E04-135, read-out: MIC, BMD.
Where [18] appears, read: Elizabethkingia anophelis, E. anophelis clinical isolate 2018N16-057, read-out: MIC, BMD.
[19] abbreviates: Elizabethkingia anophelis, E. anophelis clinical isolate 2018N17-036, read-out: MIC, BMD.
The mark [20] stands for this setting: Elizabethkingia anophelis, E. anophelis clinical isolate 2018N17-073, read-out: MIC, BMD.
The mark [21] stands for this setting: Elizabethkingia anophelis, E. anophelis clinical isolate 2018N17-153, read-out: MIC, BMD.
[22] abbreviates: Elizabethkingia anophelis, E. anophelis clinical isolate 2018N21-226, read-out: MIC, BMD.
[23] abbreviates: Elizabethkingia anophelis, E. anophelis clinical isolate 2018S09-023, read-out: MIC, BMD.
[24] abbreviates: Elizabethkingia anophelis, E. anophelis clinical isolate 2018S11-172, read-out: MIC, BMD.

As to Teicoplanin, the “MIC, BMD” value in data set [1] (E. anophelis clinical isolate 2008N05-106), in data set [1] (E. anophelis clinical isolate 2008S01-229), in data set [1] (E. anophelis clinical isolate 2014C06-157), in data set [1] (E. anophelis clinical isolate 2016N17-576), in data set [1] (E. anophelis clinical isolate 2018C04-213) and in data set [1] (E. anophelis clinical isolate 2018C04-224) was 128 µg/mL each time. In addition, the “MIC, BMD” value turned out to be 256 µg/mL in data set [1] (E. anophelis clinical isolate 2018C07-210); 256 µg/mL in data set [1] (E. anophelis clinical isolate 2018C07-234); 128 µg/mL in data set [1] (E. anophelis clinical isolate 2018C08-127); 128 µg/mL in data set [1] (E. anophelis clinical isolate 2018E03-151); 64 µg/mL in data set [1] (E. anophelis clinical isolate 2018E04-135); 128 µg/mL in data set [1] (E. anophelis clinical isolate 2018N16-057). The “MIC, BMD” value in data set [1] (E. anophelis clinical isolate 2018N17-036) turned out to be 128 µg/mL; in data set [1] (E. anophelis clinical isolate 2018N17-073), 128 µg/mL; in data set [1] (E. anophelis clinical isolate 2018N17-153), 128 µg/mL; in data set [1] (E. anophelis clinical isolate 2018N21-226) it was 64 µg/mL; in data set [1] (E. anophelis clinical isolate 2018S09-023), 64 µg/mL; in data set [1] (E. anophelis clinical isolate 2018S11-172) it was 64 µg/mL. This molecule also had an MICs in data set [1] (setting [6]) of 128 mg/L. In data set [2] (10 mg/kg once, 30 min post-inoculation), the “survival of infected wax moths” value is reported as “no survival benefit”. Besides, in data set [3], the “survival of infected mice” value is “little effect”. Besides, the “reduction of bacterial loads in thigh” value in data set [4] is on record as “little effect”. Further, the “concentration in murine serum relative to vancomycin” value in data set [5] is listed as “much higher than that of vancomycin”.

For the molecule `CN[C@H]1C(=O)N[C@@H]2Cc3ccc(cc3)Oc3cc4cc(c3O[C@@H]3O[C@H](C(=O)O)[C@@H](O)[C@H](O)[C@H]3NC(=O)CCCCCCCCC(C)C)Oc3ccc(cc3Cl)[C@@H](O)[C@@H]3NC(=O)[C@H](NC(=O)[C@@H]4NC(=O)[C@@H](NC2=O)c2cc(cc(O)c2Cl)Oc2cc1ccc2O)c1ccc(O)c(c1)-c1c(O[C@H]2O[C@H](CO)[C@@H](O)[C@H](O)[C@@H]2O)cc(O)cc1[C@@H](C(=O)NCCCN(C)C)NC3=O` [dalbavancin], in data set [1] (setting [6]), the MICs worked out at 64 mg/L. Besides, in data set [2] (8.75 mg/kg once, 2 h post-inoculation), the “survival of infected wax moths” value is on record as “no survival benefit”.

With `CN[C@H](CC(C)C)C(=O)N[C@H]1C(=O)N[C@@H](CC(N)=O)C(=O)N[C@H]2C(=O)N[C@H]3C(=O)N[C@H](C(=O)N[C@H](C(=O)O)c4cc(O)cc(O)c4-c4cc3ccc4O)[C@H](O[C@H]3C[C@](C)(N)[C@@H](O)[C@H](C)O3)c3ccc(c(Cl)c3)Oc3cc2cc(c3O[C@@H]2O[C@H](CO)[C@@H](O)[C@H](O)[C@H]2O[C@H]2C[C@](C)(NCc3ccc(-c4ccc(Cl)cc4)cc3)[C@@H](O)[C@H](C)O2)Oc2ccc(cc2Cl)[C@H]1O` [oritavancin], the MIC in data set [1] (read-out: MICs, E. anophelis used in the G. mellonella assays of Fig. S4, isolate and method not given) worked out at 64 µg/mL (≈ 35.7 µM). The “survival of infected wax moths” value in data set [2] (15 mg/kg once, 1 h post-inoculation) is “no survival benefit”.

For `C[C@H]1COc2c(N3CCN(C)CC3)c(F)cc3c(=O)c(C(=O)O)cn1c23` [Levofloxacin], the MIC is more than 8 µg/mL in data set [1] (setting [7]); not above 1 µg/mL in data set [1] (setting [8]); more than 8 µg/mL in data set [1] (setting [9]); more than 8 µg/mL in data set [1] (setting [10]); more than 8 µg/mL in data set [1] (setting [11]); more than 8 µg/mL in data set [1] (setting [12]). In addition, the MIC in data set [1] (setting [13]) is more than 8 µg/mL; in data set [1] (setting [14]), more than 8 µg/mL; in data set [1] (setting [15]) it was 2 µg/mL (≈ 5.53 µM); in data set [1] (setting [16]), 2 µg/mL (≈ 5.53 µM); in data set [1] (setting [17]), not above 1 µg/mL; in data set [1] (setting [18]) it was not above 1 µg/mL. Besides, the MIC in data set [1] (setting [19]) is more than 8 µg/mL; in data set [1] (setting [20]), more than 8 µg/mL; in data set [1] (setting [21]), more than 8 µg/mL; in data set [1] (setting [22]) it was not above 1 µg/mL; in data set [1] (setting [23]), not above 1 µg/mL; in data set [1] (setting [24]), 2 µg/mL (≈ 5.53 µM).

On to `CN(C)c1ccc(O)c2c1C[C@H]1C[C@H]3[C@H](N(C)C)C(O)=C(C(N)=O)C(=O)[C@@]3(O)C(O)=C1C2=O` [Minocycline], for which the MIC in data set [1] (setting [7]), in data set [1] (setting [8]), in data set [1] (setting [9]), in data set [1] (setting [10]), in data set [1] (setting [11]) and in data set [1] (setting [12]) was not above 2 µg/mL throughout. In addition, the MIC in data set [1] (setting [13]), in data set [1] (setting [14]), in data set [1] (setting [15]), in data set [1] (setting [16]), in data set [1] (setting [17]) and in data set [1] (setting [18]) was not above 2 µg/mL throughout. The MIC in data set [1] (setting [19]), in data set [1] (setting [20]), in data set [1] (setting [21]), in data set [1] (setting [22]), in data set [1] (setting [23]) and in data set [1] (setting [24]) was not above 2 µg/mL each time.

With `CCCCCCCCCC(=O)N[C@@H](Cc1c[nH]c2ccccc12)C(=O)N[C@H](CC(N)=O)C(=O)N[C@@H](CC(=O)O)C(=O)N[C@@H]1C(=O)NCC(=O)N[C@@H](CCCN)C(=O)N[C@@H](CC(=O)O)C(=O)N[C@H](C)C(=O)N[C@@H](CC(=O)O)C(=O)NCC(=O)N[C@H](CO)C(=O)N[C@@H]([C@H](C)CC(=O)O)C(=O)N[C@@H](CC(=O)c2ccccc2N)C(=O)O[C@@H]1C` [daptomycin], the MIC in data set [1] (E. anophelis used in the G. mellonella assays of Fig. S4, isolate and method not given, read-out: MICs) came out at 128 µg/mL (≈ 79 µM). Also, the “survival of infected wax moths” value in data set [2] (10 mg/kg once, 2 h post-inoculation) is “no survival benefit”.
